Data taken from PubChem BioAssay (NCI).
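Interpolation was linear, between the two tested concentrations surrounding the appropriate level; five concentrations were tested over 48 hours in 96-well plates. GI50: concentration for 50% inhibition of growth. Definition used: TGI = concentration required for complete inhibition of growth.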

Key:
Test in all cases: NCI tumour cell line growth inhibition, 48 h
HL-60(TB) leukemia = tested on: HL-60(TB) leukemia
A498 renal = tested on: A498 renal
SNB-75 CNS = tested on: SNB-75 CNS
SK-OV-3 ovarian = tested on: SK-OV-3 ovarian
NCI/ADR-RES ovarian = tested on: NCI/ADR-RES ovarian
SF-295 CNS = tested on: SF-295 CNS
UACC-257 melanoma = tested on: UACC-257 melanoma
IGROV1 ovarian = tested on: IGROV1 ovarian
RXF 393 renal = tested on: RXF 393 renal
NCI-H23 lung = tested on: NCI-H23 lung

SMILES	TGI (HL-60(TB) leukemia) [µM]	TGI (A498 renal) [µM]	TGI (SNB-75 CNS) [µM]	TGI (SK-OV-3 ovarian) [µM]	TGI (NCI/ADR-RES ovarian) [µM]	TGI (SF-295 CNS) [µM]	TGI (UACC-257 melanoma) [µM]	TGI (IGROV1 ovarian) [µM]	TGI (RXF 393 renal) [µM]	TGI (NCI-H23 lung) [µM]	GI50 (HL-60(TB) leukemia) [µM]	GI50 (A498 renal) [µM]	GI50 (SNB-75 CNS) [µM]	GI50 (SK-OV-3 ovarian) [µM]	GI50 (NCI/ADR-RES ovarian) [µM]	GI50 (SF-295 CNS) [µM]	GI50 (UACC-257 melanoma) [µM]	GI50 (IGROV1 ovarian) [µM]	GI50 (RXF 393 renal) [µM]	GI50 (NCI-H23 lung) [µM]
COc1ccc(C=Nc2ccc(-c3nc4ccccc4[nH]3)cc2)cc1OC	> 100	> 100	52.3	> 100	> 100	> 100	> 100	> 100	> 100	> 100	–	–	–	–	–	–	–	–	–	–
COc1ccc(C(=O)c2ccc(-n3cc(/C=C/[N+](=O)[O-])c4ccccc43)cc2)cc1	44.6	44.9	> 100	> 71.3	56.5	> 100	31.3	26.2	10.8	52.4	–	–	–	–	–	–	–	–	–	–
Cn1c(=O)sc2cc(C(=S)N3CCOCC3)ccc21	> 100	> 100	> 95.3	> 100	> 100	> 100	> 100	> 100	> 100	> 100	–	–	–	–	–	–	–	–	–	–
CCCCCCCCCCCCCCCCOCC(Cl)COP(=O)(O)OP(=O)(O)OCC1OC(n2cnc3c(N)ncnc32)C(O)C1O (stereo not given)	> 100	> 100	89.7	> 100	> 100	> 100	> 100	> 100	> 100	> 100	–	–	–	–	–	–	–	–	–	–
Oc1[nH]c2ccccc2c1/C=c1/cc2c(c(-c3ccc(C(F)(F)F)cc3)n1)=Nc1ccccc1-2	9.25	38.6	20.7	56.6	18.8	28.4	42.3	28.8	15.3	31.8	3.41	5.2	1.45	13.8	1.9	2.99	13.6	8.25	3.08	10.9
CO[P@]1(=O)O[C@@H](c2ccccc2)[C@H](O)[C@@]1(O)c1ccccc1	> 100	> 100	> 100	> 100	> 100	> 100	> 100	> 100	> 100	> 100	–	–	–	–	–	–	–	–	–	–
NC(=S)N/N=C\CC(O)(C(F)(F)F)C(F)(F)F	> 10	> 10	> 10	> 10	> 10	> 10	> 10	> 10	> 10	> 10	–	–	–	–	–	–	–	–	–	–
CC(C)(C)OC(=O)N1CCc2c(n(C/C=C/c3ccccc3)[nH]c2=O)C1	> 100	> 100	> 100	> 100	> 100	> 100	> 100	> 100	> 100	> 100	–	–	–	–	–	–	–	–	–	–
COC(=O)C(NC(=O)CSc1nnc(COc2ccc(Cl)cc2)n1-c1ccccc1)C(C)C (stereo not given)	> 100	> 100	38.9	> 100	82.1	42.2	34	36.8	57.5	69.3	–	–	–	–	–	–	–	–	–	–
Nc1c(N=Nc2ccc(-c3ccc(N=Nc4c(O)ccc5cc(S(=O)(=O)O)cc(S(=O)(=O)O)c45)cc3)cc2)c(S(=O)(=O)O)cc2cc(S(=O)(=O)O)c(N=Nc3ccccc3)c(O)c12	> 100	> 100	90.7	> 100	> 100	> 100	> 100	> 100	> 100	> 100	–	–	–	–	–	–	–	–	–	–
CCCNC(=O)CCC(C)[C@H]1CCC2C3C(C[C@H](OC(C)=O)[C@@]21C)[C@@]1(C)CCC2(C[C@H]1C[C@H]3OC(C)=O)OOC1(CCCCC1)OO2 (stereo not given in full)	3.94	50.1	6.86	> 100	8.45	39.7	> 100	2.22	27.7	3.54	–	–	–	–	–	–	–	–	–	–
NC(=O)C1=CC2C3C=CC2(O)C(=O)OC3O1 (stereo not given)	10.5	59.3	29.4	57.4	7.22	27.1	7.44	11.7	8.23	9.47	–	–	–	–	–	–	–	–	–	–
COc1cc(-n2cc(-c3cc(O)c(C/C=C(\C)CCC=C(C)C)c(O)c3)nn2)cc2c1O[C@]1(C)CC[C@@H](O)C(C)(C)[C@H]1C2	3.88	32.8	15	33.3	68.6	0.122	48.4	28.5	0.337	31.3	0.0655	0.298	0.208	2.3	3.51	0.028	5.09	1.85	0.0214	3.26
